Active and inactive are the calls of the source. No cut-off for these calls is given here.
Experiments:
Mus musculus [1] = assay: Percent inhibition of anti-DNA antibody was evaluated by ELISA technique as a measure of auto-immune disease after injection of compound dose of 0.1 mg/kg in murine; format: functional
Mus musculus [2] = assay: Percent inhibition of anti-DNA antibody was evaluated by ELISA technique as a measure of auto-immune disease after injection of compound dose of 1 mg/kg in murine; format: functional
Mus musculus [3] = assay: Percent inhibition of anti-DNA antibody was evaluated by ELISA technique as a measure of auto-immune disease after injection of compound dose of 10 mg/kg in murine; format: functional
Mus musculus [4] = assay: Percent inhibition of proteinuria by compound dose of 1 mg/kg given perorally to murine in chronic graft-versus-host-disease test; format: functional; conditions: route oral
Mus musculus [5] = assay: Percent inhibition of proteinuria by compound dose of 10 mg/kg given perorally to murine in chronic graft-versus-host-disease test; format: functional; conditions: route oral
Mus musculus [6] = assay: Percent inhibition of proteinuria by compound dose of 0.1 mg/kg given perorally to murine in chronic graft-versus-host-disease test; format: functional; conditions: route oral
Mus musculus [7] = assay: Percent inhibition of proteinuria in mice, perorally dose of 32 mg/kg; format: functional; conditions: route oral
Mus musculus [8] = assay: Percent inhibition of proteinuria by compound dose of 100 mg/kg given perorally to murine in chronic graft-versus-host-disease test; format: functional; conditions: route oral
Mus musculus [9] = assay: Percent inhibition of anti-DNA antibody was evaluated by ELISA technique as a measure of auto-immune disease after injection of compound dose of 1 mg/kg in MRL/1 mice; format: functional
Mus musculus [10] = assay: Percent inhibition of anti-DNA antibody was evaluated by ELISA technique as a measure of auto-immune disease after injection of compound dose of 10 mg/kg in MRL/1 mice; format: functional
Mus musculus [11] = assay: Percent inhibition of anti-DNA antibody was evaluated by ELISA technique as a measure of auto-immune disease after injection of compound dose of 100 mg/kg in MRL/1 mice; format: functional
Mus musculus [12] = assay: Percent inhibition of anti-DNA antibody was evaluated by ELISA technique as a measure of auto-immune disease after injection of compound dose of 100 mg/kg in murine; format: functional
Mus musculus [13] = assay: Percent inhibition of anti-DNA antibody was evaluated by ELISA technique as a measure of auto-immune disease after injection of compound dose of 3.2 mg/kg in MRL/1 mice; format: functional
Mus musculus [14] = assay: Percent inhibition of anti-DNA antibody was evaluated by ELISA technique as a measure of auto-immune disease after injection of compound dose of 32 mg/kg in murine; format: functional
Mus musculus [15] = assay: Percent inhibition of proteinuria by compound dose of 1 mg/kg given perorally to MRL/1 mice; Inactive; format: functional, organism-based; design: dose 1 mg/kg
Mus musculus [16] = assay: Percent inhibition of proteinuria by compound dose of 10 mg/kg given perorally to MRL/1 mice; format: functional; conditions: route oral
Mus musculus [17] = assay: Percent inhibition of proteinuria by compound dose of 100 mg/kg given perorally to MRL/1 mice; format: functional; conditions: route oral
Mus musculus [18] = assay: Percent inhibition of proteinuria by compound dose of 3.2 mg/kg given perorally to MRL/1 mice; Inactive; format: functional, organism-based; design: dose 3.2 mg/kg
Mus musculus [19] = assay: Percent inhibition of proteinuria by compound dose of 32 mg/kg given perorally to MRL/1 mice; format: functional; conditions: route oral
Mus musculus [20] = assay: Percent inhibition of anti-DNA antibody was evaluated by ELISA technique as a measure of auto-immune disease after injection of compound dose of 32 mg/kg in MRL/1 mice; format: functional
Mus musculus [21] = assay: Percent inhibition of anti-DNA antibody was evaluated by ELISA technique as a measure of auto-immune disease after injection of compound dose of 0.1 mg/kg in MRL/1 mice; format: functional
Mus musculus [22] = assay: Percent inhibition of anti-DNA antibody was evaluated by ELISA technique as a measure of auto-immune disease after injection of compound dose of 0.32 mg/kg in MRL/1 mice; format: functional
Mus musculus [23] = assay: Percent inhibition of proteinuria by compound dose of 0.32 mg/kg given perorally to MRL/1 mice; format: functional; conditions: route oral
Mus musculus [24] = assay: Percent inhibition of proteinuria by compound dose of 1 mg/kg given perorally to MRL/1 mice; format: functional; conditions: route oral
Mus musculus [25] = assay: Percent inhibition of proteinuria by compound dose of 3.2 mg/kg given perorally to MRL/1 mice; format: functional; conditions: route oral
Mus musculus [26] = assay: Percent inhibition of proteinuria by compound dose of 0.1 mg/kg given perorally to MRL/1 mice; format: functional; conditions: route oral

C[C@]12C=CC(=O)C=C1CCC1[C@@H]2[C@@H](O)C[C@@]2(C)[C@H]1CC[C@]2(O)C(=O)CO (single isomer, unassigned) [PREDNISOLONE]
inhibition in vivo at 0.1 mg/kg (Mus musculus [1]): 39%
inhibition in vivo at 1 mg/kg (Mus musculus [2]): 39%
inhibition in vivo at 10 mg/kg (Mus musculus [3]): 52%
inhibition in vivo at 1 mg/kg (Mus musculus [4]): 75%
inhibition in vivo at 10 mg/kg (Mus musculus [5]): 100%
inhibition in vivo at 0.1 mg/kg (Mus musculus [6]): 53%

CSc1ccc2c(c1)c(O)c(C(=O)N(C)C1CCCCC1)c(=O)n2C
inhibition in vivo at 32 mg/kg (Mus musculus [7]): 43%

CSc1ccc2c(c1)c(O)c(C(=O)N(C)c1ccc(C)cc1)c(=O)n2C
inhibition in vivo at 32 mg/kg (Mus musculus [7]): 100%

CSc1ccc2c(c1)c(O)c(C(=O)N(C)c1ccc(F)cc1)c(=O)n2C
inhibition in vivo at 32 mg/kg (Mus musculus [7]): 100%

CSc1ccc2c(c1)c(O)c(C(=O)N(C)c1ccccn1)c(=O)n2C
inhibition in vivo at 32 mg/kg (Mus musculus [7]): 65%

CN(C(=O)c1c(O)c2cc(S(C)(=O)=O)ccc2n(C)c1=O)c1ccccc1
inhibition in vivo at 32 mg/kg (Mus musculus [7]): 0%

CSc1ccc2c(c1)c(O)c(S(=O)(=O)Cc1ccccc1)c(=O)n2C
inhibition in vivo at 100 mg/kg (Mus musculus [8]): -49%

CCn1c(=O)c(C(=O)N(C)c2ccccc2)c(O)c2cc(SC)ccc21
inhibition in vivo at 32 mg/kg (Mus musculus [7]): 83%

CNc1c(C(=O)N(C)c2ccccc2)c(=O)n(C)c2ccc(SC)cc12
inhibition in vivo at 32 mg/kg (Mus musculus [7]): 83%

CSc1ccc2c(c1)c(Cl)c(C(=O)N(C)c1ccccc1)c(=O)n2C
inhibition in vivo at 32 mg/kg (Mus musculus [7]): -1%

CSc1ccc2c(c1)c(O)c(C(=O)C1(c3ccccc3)CC1)c(=O)n2C
inhibition in vivo at 100 mg/kg (Mus musculus [8]): 29%

CCSc1ccc2c(c1)c(O)c(C(=O)N(C)c1ccccc1)c(=O)n2C
inhibition in vivo at 32 mg/kg (Mus musculus [7]): 100%

COc1ccc(N(C)C(=O)c2c(O)c3cc(SC)ccc3n(C)c2=O)cc1
inhibition in vivo at 32 mg/kg (Mus musculus [7]): 100%

CSc1ccc2c(c1)c(O)c(C(=O)N(C)c1cccc(C(F)(F)F)c1)c(=O)n2C
inhibition in vivo at 32 mg/kg (Mus musculus [7]): 99%

CSc1ccc2c(c1)c(N)c(C(=O)N(C)c1ccccc1)c(=O)n2C
inhibition in vivo at 32 mg/kg (Mus musculus [7]): 22%

CSc1ccc2c(c1)c(O)c(S(=O)(=O)N(C)c1ccccc1)c(=O)n2C
inhibition in vivo at 32 mg/kg (Mus musculus [7]): 53%

CN(C(=O)c1c(O)c2cc(Sc3ccccc3)ccc2n(C)c1=O)c1ccccc1
inhibition in vivo at 32 mg/kg (Mus musculus [7]): 100%

CSc1ccc2c(c1)c(S)c(C(=O)N(C)c1ccccc1)c(=O)n2C
inhibition in vivo at 32 mg/kg (Mus musculus [7]): 19%

CSc1ccc2c(c1)c(O)c(C(=O)Nc1ccccc1)c(=O)n2C
inhibition in vivo at 32 mg/kg (Mus musculus [7]): 24%

CSc1ccc2c(c1)c(O)c(C(=O)c1ccccc1)c(=O)n2C
inhibition in vivo at 100 mg/kg (Mus musculus [8]): 42%

COCn1c(=O)c(C(=O)N(C)c2ccccc2)c(O)c2cc(SC)ccc21
inhibition in vivo at 32 mg/kg (Mus musculus [7]): 78%

CSc1ccc2c(c1)c(O)c(C(=O)n1ccc3ccccc31)c(=O)n2C
inhibition in vivo at 100 mg/kg (Mus musculus [8]): 48%

CN(C(=O)c1c(O)c2cc(Oc3ccccc3)ccc2n(C)c1=O)c1ccccc1
inhibition in vivo at 32 mg/kg (Mus musculus [7]): 26%

CSc1ccc2nc(O)c(C(=O)N(C)c3ccccc3)c(O)c2c1
inhibition in vivo at 32 mg/kg (Mus musculus [7]): 88%

CN(C(=O)c1c(O)c2ccccc2n(C)c1=O)c1ccccc1 [ROQUINIMEX]
inhibition in vivo at 1 mg/kg (Mus musculus [9]): 24%
inhibition in vivo at 10 mg/kg (Mus musculus [10]): 51%
inhibition in vivo at 10 mg/kg (Mus musculus [3]): -19%
inhibition in vivo at 100 mg/kg (Mus musculus [11]): 76%
inhibition in vivo at 100 mg/kg (Mus musculus [12]): 37%
inhibition in vivo at 3.2 mg/kg (Mus musculus [13]): 35%
inhibition in vivo at 32 mg/kg (Mus musculus [14]): 36%
inhibition (Mus musculus [15]): inactive
inhibition in vivo at 10 mg/kg (Mus musculus [16]): 60%
inhibition in vivo at 100 mg/kg (Mus musculus [17]): 100%
inhibition in vivo at 100 mg/kg (Mus musculus [8]): 98%
inhibition in vivo at 10 mg/kg (Mus musculus [5]): 9%
inhibition (Mus musculus [18]): inactive
inhibition in vivo at 32 mg/kg (Mus musculus [19]): 100%
inhibition in vivo at 32 mg/kg (Mus musculus [7]): 86%
inhibition in vivo at 32 mg/kg (Mus musculus [20]): 52%

COc1c(C(=O)N(C)c2ccccc2)c(=O)n(C)c2ccc(SC)cc12
inhibition in vivo at 32 mg/kg (Mus musculus [7]): 94%

CSc1ccc2c(c1)c(O)c(C(=O)N(C)c1ccccc1)c(=O)n2Cc1ccccc1
inhibition in vivo at 32 mg/kg (Mus musculus [7]): -66%

CCN(C(=O)c1c(O)c2cc(SC)ccc2n(C)c1=O)c1ccccc1
inhibition in vivo at 32 mg/kg (Mus musculus [7]): 89%

CN(C(=O)c1c(O)c2cc([S+](C)[O-])ccc2n(C)c1=O)c1ccccc1 (stereo not drawn)
inhibition in vivo at 32 mg/kg (Mus musculus [7]): 100%

CSc1ccc2c(c1)c(O)c(C(=O)N(C)c1ccccc1)c(=O)n2C
inhibition in vivo at 0.1 mg/kg (Mus musculus [21]): 49%
inhibition in vivo at 0.1 mg/kg (Mus musculus [1]): 41%
inhibition in vivo at 0.32 mg/kg (Mus musculus [22]): 69%
inhibition in vivo at 1 mg/kg (Mus musculus [9]): 76%
inhibition in vivo at 1 mg/kg (Mus musculus [2]): 50%
inhibition in vivo at 10 mg/kg (Mus musculus [10]): 93%
inhibition in vivo at 10 mg/kg (Mus musculus [3]): 88%
inhibition in vivo at 100 mg/kg (Mus musculus [12]): 94%
inhibition in vivo at 3.2 mg/kg (Mus musculus [13]): 88%
inhibition in vivo at 0.32 mg/kg (Mus musculus [23]): 100%
inhibition in vivo at 1 mg/kg (Mus musculus [24]): 100%
inhibition in vivo at 1 mg/kg (Mus musculus [4]): 82%
inhibition in vivo at 10 mg/kg (Mus musculus [16]): 100%
inhibition in vivo at 100 mg/kg (Mus musculus [8]): 100%
inhibition in vivo at 10 mg/kg (Mus musculus [5]): 100%
inhibition in vivo at 3.2 mg/kg (Mus musculus [25]): 100%
inhibition in vivo at 32 mg/kg (Mus musculus [7]): 100%
inhibition in vivo at 0.1 mg/kg (Mus musculus [26]): 100%
inhibition in vivo at 0.1 mg/kg (Mus musculus [6]): 66%

Reference: ChEMBL document CHEMBL1135099, “Synthesis and antinephritic activities of quinoline-3-carboxamides and related compounds” (2002)
